According to patent US6753323B2, “Topical administration of amifostine and related compounds” (MedImmune Oncology, Inc., priority 1998, dated 2004):

Assays:
Aspergillus niger [1] = test: Microbial growth inhibition, refrigerated storage (2°-8° C.); format: cell-based; conditions: A. niger, refrigerated 2°-8° C.; for % Change: vs theoretical 0 hr count
Method: (§1) Amifostine was studied for its ability to inhibit microbial growth. Clear 10 cc vials, stoppers and seals were sterilized for use in the study. Two separate procedures were performed: a refrigerated storage study (2° to 8° C.) and a room temperature storage study (20° to 25° C.). For each test portion, positive controls were prepared for each organism by placing 9.5 mL sterile 0.9% sodium chloride into separate sterile vials and inoculating each with 10^3 to 10^4 of one of the test organisms. In addition, amifostine test specimens were prepared for each test portion by reconstituting six Ethyol® vials with 0.9% sodium chloride, the contents of each of these vials were then transferred to clear sterile vials to allow for easier visual examination. One vial was designated as a negative control, and each of the remaining five vials was inoculated with 10^3 to 10^4 of one of the test organisms. All vials were protected from light throughout the test to simulate the amber Ethyol® vial.
(§2) Positive controls, product test specimens, and a negative control were prepared. At this time, population counts were performed on each positive control. Population counts were also performed on positive controls and product test specimens at 24, 48 and 72 hours. These samples were diluted with sterile water and plated in duplicate with a target of 30 to 300 colonies per plate. Candida albicans, Escherichia coli, Pseudomonas aeruginosa, and Staphylococcus aureus were overpoured with TSA agar and incubated at 30-35° C. for 48 hours. Aspergillus niger was overpoured with Sabouraud agar and incubated at 20-25° C. for 48 hours.

Candida albicans [2] = test: as above; format: cell-based; conditions: refrigerated 2°-8° C.; for % Change: vs theoretical 0 hr count
Method: as §1, §2

Escherichia coli [3] = test: as above; format: cell-based; conditions: E. coli, refrigerated 2°-8° C.; for % Change: vs theoretical 0 hr count
Method: as §1, §2

Pseudomonas aeruginosa [4] = test: as above; format: cell-based; conditions: P. aeruginosa, refrigerated 2°-8° C.; for % Change: vs theoretical 0 hr count
Method: as §1, §2

Staphylococcus aureus [5] = test: as above; format: cell-based; conditions: S. aureus, refrigerated 2°-8° C.; for % Change: vs theoretical 0 hr count
Method: as §1, §2

Aspergillus niger [6] = test: Microbial growth inhibition, room temperature storage (20°-25° C.); format: cell-based; conditions: A. niger, room temperature 20°-25° C.; for % Change: vs theoretical 0 hr count
Method: as §1
as §2, with “24 and” for “24,”, “48” for “48 and 72”

Candida albicans [7] = test: as above; format: cell-based; conditions: room temperature 20°-25° C.; for % Change: vs theoretical 0 hr count
Method: as §1
as §2, with “24 and” for “24,”, “48” for “48 and 72”

Escherichia coli [8] = test: as above; format: cell-based; conditions: E. coli, room temperature 20°-25° C.; for % Change: vs theoretical 0 hr count
Method: as §1
as §2, with “24 and” for “24,”, “48” for “48 and 72”

Pseudomonas aeruginosa [9] = test: as above; format: cell-based; conditions: P. aeruginosa, room temperature 20°-25° C.; for % Change: vs theoretical 0 hr count
Method: as §1
as §2, with “24 and” for “24,”, “48” for “48 and 72”

Staphylococcus aureus [10] = test: as above; format: cell-based; conditions: S. aureus, room temperature 20°-25° C.; for % Change: vs theoretical 0 hr count
Method: as §1
as §2, with “24 and” for “24,”, “48” for “48 and 72”

mouse skin = conditions: cited from earlier work
murine skin = conditions: gauze with 10% solution in saline on murine skin 15 to 60 minutes, then 137Cs irradiation; cited from earlier work
rectal wall of rats = conditions: intrarectal injection of 2% amifostine gel; cited from earlier work
small intestine of rats = conditions: 150 mg/mL in pH 9 Tris buffer, intralumenal; cited from earlier work

**Q.** Which “CFU/mL in Amifostine” value (Aspergillus niger [1]; 24 hr) does the source give for `NCCCNCCSP(=O)(O)O` [amifostine, S-2-(3-aminopropylamino)ethyl dihydrogen phosphorothioate] here?
**A.** Its value is 1.78 × 10^5 CFU/mL.

**Q.** What about the “% Change” value (Aspergillus niger [1]; 24 hr) of the same molecule?
**A.** The value was −40.7%.

**Q.** What about the “CFU/mL in Amifostine” value (Aspergillus niger [1]; 48 hr) of the same molecule?
**A.** The value was 1.67 × 10^5 CFU/mL.

**Q.** What about the “% Change” value (Aspergillus niger [1]; 48 hr) of the same molecule?
**A.** The value was −44.3%.

**Q.** And the “CFU/mL in Amifostine” value (Aspergillus niger [1]; 72 hr)?
**A.** Its value is 1.67 × 10^5 CFU/mL.

**Q.** What about the “% Change” value (Aspergillus niger [1]; 72 hr) of the same molecule?
**A.** Its value is −44.3%.

**Q.** And the “CFU/mL in Amifostine” value (Candida albicans [2]; 24 hr)?
**A.** The value was 3.99 × 10^3 CFU/mL.

**Q.** And the “% Change” value (Candida albicans [2]; 24 hr)?
**A.** The value was −63.0%.

**Q.** What about the “CFU/mL in Amifostine” value (Candida albicans [2]; 48 hr) of the same molecule?
**A.** The value was 2.09 × 10^3 CFU/mL.

**Q.** And the “% Change” value (Candida albicans [2]; 48 hr)?
**A.** The value was −80.6%.

**Q.** And the “CFU/mL in Amifostine” value (Candida albicans [2]; 72 hr)?
**A.** The value was 7.13 × 10^3 CFU/mL.

**Q.** And the “% Change” value (Candida albicans [2]; 72 hr)?
**A.** Its value is −34.0%.

**Q.** And the “CFU/mL in Amifostine” value (Escherichia coli [3]; 24 hr)?
**A.** The value was 2.85 × 10^2 CFU/mL.

**Q.** What about the “% Change” value (Escherichia coli [3]; 24 hr) of the same molecule?
**A.** The value was −70.0%.

**Q.** And the “CFU/mL in Amifostine” value (Escherichia coli [3]; 48 hr)?
**A.** The value was 0 CFU/mL.

**Q.** What about the “% Change” value (Escherichia coli [3]; 48 hr) of the same molecule?
**A.** The value was −100%.

**Q.** What about the “CFU/mL in Amifostine” value (Escherichia coli [3]; 72 hr) of the same molecule?
**A.** Its value is 0 CFU/mL.

**Q.** What about the “% Change” value (Escherichia coli [3]; 72 hr) of the same molecule?
**A.** Its value is −100%.

**Q.** And the “CFU/mL in Amifostine” value (Pseudomonas aeruginosa [4]; 24 hr)?
**A.** Its value is 3.04 × 10^3 CFU/mL.

**Q.** And the “% Change” value (Pseudomonas aeruginosa [4]; 24 hr)?
**A.** Its value is −20.0%.

**Q.** What about the “CFU/mL in Amifostine” value (Pseudomonas aeruginosa [4]; 48 hr) of the same molecule?
**A.** Its value is 1.76 × 10^3 CFU/mL.

**Q.** And the “% Change” value (Pseudomonas aeruginosa [4]; 48 hr)?
**A.** The value was −53.7%.

**Q.** What about the “CFU/mL in Amifostine” value (Pseudomonas aeruginosa [4]; 72 hr) of the same molecule?
**A.** The value was 1.85 × 10^3 CFU/mL.

**Q.** What about the “% Change” value (Pseudomonas aeruginosa [4]; 72 hr) of the same molecule?
**A.** Its value is −51.3%.

**Q.** And the “CFU/mL in Amifostine” value (Staphylococcus aureus [5]; 24 hr)?
**A.** Its value is 4.75 × 10^1 CFU/mL.

**Q.** And the “% Change” value (Staphylococcus aureus [5]; 24 hr)?
**A.** Its value is −50.0%.

**Q.** What about the “CFU/mL in Amifostine” value (Staphylococcus aureus [5]; 48 hr) of the same molecule?
**A.** Its value is 4.75 × 10^1 CFU/mL.

**Q.** And the “% Change” value (Staphylococcus aureus [5]; 48 hr)?
**A.** The value was −50.0%.

**Q.** And the “CFU/mL in Amifostine” value (Staphylococcus aureus [5]; 72 hr)?
**A.** Its value is 4.75 × 10^1 CFU/mL.

**Q.** And the “% Change” value (Staphylococcus aureus [5]; 72 hr)?
**A.** Its value is −50.0%.

**Q.** And the “CFU/mL in Amifostine” value (Aspergillus niger [6]; 24 hr)?
**A.** The value was 1.56 × 10^7 CFU/mL.

**Q.** And the “% Change” value (Aspergillus niger [6]; 24 hr)?
**A.** Its value is “+58.3%”.

**Q.** What about the “CFU/mL in Amifostine” value (Aspergillus niger [6]; 48 hr) of the same molecule?
**A.** Its value is 3.52 × 10^6 CFU/mL.

**Q.** And the “% Change” value (Aspergillus niger [6]; 48 hr)?
**A.** The value was −61.3%.

**Q.** What about the “CFU/mL in Amifostine” value (Candida albicans [7]; 24 hr) of the same molecule?
**A.** The value was 1.43 × 10^4 CFU/mL.

**Q.** What about the “% Change” value (Candida albicans [7]; 24 hr) of the same molecule?
**A.** Its value is −13.8%.

**Q.** And the “CFU/mL in Amifostine” value (Candida albicans [7]; 48 hr)?
**A.** Its value is 1.00 × 10^4 CFU/mL.

**Q.** And the “% Change” value (Candida albicans [7]; 48 hr)?
**A.** Its value is −39.8%.

**Q.** And the “CFU/mL in Amifostine” value (Escherichia coli [8]; 24 hr)?
**A.** The value was 2.28 × 10^3 CFU/mL.

**Q.** And the “% Change” value (Escherichia coli [8]; 24 hr)?
**A.** Its value is −91.8%.

**Q.** What about the “CFU/mL in Amifostine” value (Escherichia coli [8]; 48 hr) of the same molecule?
**A.** Its value is 8.55 × 10^2 CFU/mL.

**Q.** And the “% Change” value (Escherichia coli [8]; 48 hr)?
**A.** Its value is −96.9%.

**Q.** And the “CFU/mL in Amifostine” value (Pseudomonas aeruginosa [9]; 24 hr)?
**A.** Its value is 5.22 × 10^2 CFU/mL.

**Q.** And the “% Change” value (Pseudomonas aeruginosa [9]; 24 hr)?
**A.** The value was −80.0%.

**Q.** And the “CFU/mL in Amifostine” value (Pseudomonas aeruginosa [9]; 48 hr)?
**A.** Its value is 0 CFU/mL.

**Q.** And the “% Change” value (Pseudomonas aeruginosa [9]; 48 hr)?
**A.** The value was −100%.

**Q.** What about the “CFU/mL in Amifostine” value (Staphylococcus aureus [10]; 24 hr) of the same molecule?
**A.** The value was 9.60 × 10^4 CFU/mL.

**Q.** What about the “% Change” value (Staphylococcus aureus [10]; 24 hr) of the same molecule?
**A.** Its value is −4.0%.

**Q.** And the “CFU/mL in Amifostine” value (Staphylococcus aureus [10]; 48 hr)?
**A.** Its value is 3.32 × 10^2 CFU/mL.

**Q.** And the “% Change” value (Staphylococcus aureus [10]; 48 hr)?
**A.** The value was −99.7%.

**Q.** And the “radioprotective effect, topically applied” value (mouse skin; paste (aqueous sodium bicarbonate pH 7 and Unibase) on mouse skin, any dose studied)?
**A.** The value was “no radioprotective effect”.

**Q.** And the “radioprotective effect, systemically administered” value (mouse skin; systemic administration, mice)?
**A.** The value was “effective in reducing the severity of radiation damage”.

**Q.** And the “radioprotective effect, topically applied” value (murine skin)?
**A.** Its value is “no significant radioprotective effects”.

**Q.** And the “tissue level of metabolite WR-1065 after topical application” value (rectal wall of rats)?
**A.** The value was “accumulation of the amifostine metabolite WR-1065 in the rectal wall”.

**Q.** And the “radioprotection against intestinal mucositis” value (small intestine of rats)?
**A.** Its value is “effective radioprotector”.
